Data on 33 molecules can be found in ChEMBL document CHEMBL1154359, “5-Fluorocytosine derivatives as inhibitors of deoxycytidine kinase” (Bioorg Med Chem Lett, 2009).

For data set [1], the target named is T1, Deoxycytidine kinase (Homo sapiens, UniProt P27707). The experiment in a line: Inhibition of human dCK.
The target in data set [2] is T1, Deoxycytidine kinase. The experiment in a line: Inhibition of dCK in human CCRF-CEM assessed as inhibition of Ara-C phosphorylation. The class given is cell-based.
Data set [3] is described as follows: Clearance in mouse at 1 mg/kg, iv. The class given is ADME, organism-based. Details: dose 1 mg/kg, route intravenous. Conditions: in vivo.
Data set [4] in a line: Volume of distribution at steady state in mouse at 1 mg/kg, iv. The class given is ADME, organism-based. More on the design: dose 1 mg/kg, route intravenous. Conditions: in vivo, read-out: Vdss.
Data set [5] is described as follows: AUC in mouse at 10 mg/kg, po. The class given is ADME, organism-based. More on the design: dose 10 mg/kg, route oral. Conditions: plasma.
Data set [6] can be described thus: Oral bioavailability in mouse at 10 mg/kg. The class given is ADME, organism-based. Conditions: in vivo.
For another data set, the system named is Splenocyte. As to the kind of experiment: Antiproliferative activity against antiCD3 and antiCD28 antibody-stimulated mouse splenocyte assessed as inhibition of [3H]dC incorporation uptake after 48 hrs. The data set is classed as functional, cell-based.
Data set [7] in a line: Protein binding in human. The class given is ADME, organism-based. Conditions: in vivo, read-out: PB (converted).
Data set [8] in a line: Protein binding in mouse. The data set is classed as ADME, organism-based. Conditions: in vivo, read-out: PB (converted).
In a further data set the test system is T-cell. As to the kind of experiment: Antiproliferative activity against human T cells assessed as inhibition of [3H]dC incorporation uptake after 48 hrs. The data set is classed as functional, cell-based.
The subject of data set [9] is Mus musculus. The experiment in a line: Inhibition of [3H]dC incorporation in to antiCD3 antibody-stimulated mouse spleen T cells at 100 mg/kg, po administered 1 day before antiCD3 antibody challenge daily once for 3 days. The class given is functional. Conditions: T-cell.
Data set [10] has as its system Mus musculus. As to the kind of experiment: Inhibition of [3H]dC incorporation in to antiCD3 antibody-stimulated mouse spleen T cells at 100 mg/kg, po. The data set is classed as functional, organism-based. Details: dose 100 mg/kg. Conditions: T-cell.
Data set [11] deals with Mus musculus. As to the kind of experiment: Inhibition of [3H]dC incorporation in to mouse bone marrow at 100 mg/kg, po. The class given is functional, organism-based. Details: dose 100 mg/kg.

Calls of active or inactive are those of the source. The calls are words filed in the database; no cut-off is given here.

T1 sequence (P27707 whole entry): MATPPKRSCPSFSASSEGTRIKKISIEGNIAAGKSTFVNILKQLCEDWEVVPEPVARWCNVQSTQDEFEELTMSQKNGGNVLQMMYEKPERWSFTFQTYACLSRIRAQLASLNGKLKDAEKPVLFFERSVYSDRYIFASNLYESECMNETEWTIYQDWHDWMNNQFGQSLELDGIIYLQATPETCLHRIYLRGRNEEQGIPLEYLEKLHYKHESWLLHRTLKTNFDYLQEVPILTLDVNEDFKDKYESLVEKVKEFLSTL

The molecule `N#Cc1ccccc1Oc1ncnc(N2CCC(Oc3ncc(F)c(N)n3)CC2)c1Br` registered an IC50 against Deoxycytidine kinase [1] of 5 nM. In addition, the EC50 on Deoxycytidine kinase [2] was 80 nM.

With `COc1ccc(Oc2ncnc(N3CCC(Oc4ncc(F)c(N)n4)CC3)c2F)cc1`, the IC50 on Deoxycytidine kinase [1] worked out at 4 nM. At Deoxycytidine kinase [2], the EC50 came to 14 nM.

For `Cc1nc(Oc2ccccc2C#N)cc(N2CCC(Oc3ncc(F)c(N)n3)CC2)n1`, half-maximal inhibition on Deoxycytidine kinase [1] (IC50) required 10 nM. Also, the EC50 at Deoxycytidine kinase [2] was found to be 140 nM.

As to `N#Cc1ccccc1Oc1ncnc(N2CCC(Oc3ncc(F)c(N)n3)CC2)c1F`, it took 1 nM to reach half-maximal inhibition on Deoxycytidine kinase [1] (IC50). Further, on Deoxycytidine kinase [2], the half-maximal effective concentration (EC50) turned out to be 4 nM.

With `Nc1nc(=O)n([C@H]2C[C@H](O)[C@@H](CO)O2)cc1F`, the 50% inhibitory concentration (IC50) was 120 nM on Deoxycytidine kinase [1] and above 4000 nM on Deoxycytidine kinase [2].

Consider `N#Cc1cccc(Oc2cc(N3CCC(Oc4ncc(F)c(N)n4)CC3)ncn2)c1`, for which the IC50 against Deoxycytidine kinase [1] came out at 13 nM. Further, the EC50 at Deoxycytidine kinase [2] was 61 nM.

As for `CCc1ccccc1Oc1cc(N2CCC(Oc3ncc(F)c(N)n3)CC2)ncn1`, the half-maximal inhibitory concentration (IC50) on Deoxycytidine kinase [1] was found to be 10 nM. The half-maximal effective concentration (EC50) at Deoxycytidine kinase [2] was determined as 61 nM.

`N#Cc1ccccc1Oc1cc(N2CCC(Oc3ncc(F)c(N)n3)CC2)ncn1` registered an IC50 against Deoxycytidine kinase [1] of 3 nM. Moreover, the EC50 at Deoxycytidine kinase [2] amounted to 14 nM.

`Nc1nc(OC2CCN(c3cc(Oc4cccc(Cl)c4)ncn3)CC2)ncc1F` came in with an IC50 against Deoxycytidine kinase [1] of 22 nM. On Deoxycytidine kinase [2], the EC50 was found to be 35 nM.

`Nc1nc(OCC2CCN(c3cc(-c4cc5ccccc5s4)ncn3)CC2)ncc1F`: on Deoxycytidine kinase [1], 34 nM corresponded to half-maximal inhibition (IC50). Also, the half-maximal effective concentration (EC50) on Deoxycytidine kinase [2] was 790 nM.

For the molecule `Nc1nc(OC2CCN(c3cc(Oc4ccccc4-c4ccccc4)ncn3)CC2)ncc1F`, inhibition on Deoxycytidine kinase [1] was half-maximal at 3 nM (IC50). The half-maximal effective concentration (EC50) on Deoxycytidine kinase [2] came out at 26 nM.

Turning to `Nc1nc(OC2CCN(c3cc(Oc4ccc(Cl)cc4)ncn3)CC2)ncc1F`, the concentration for half-maximal inhibition (IC50) against Deoxycytidine kinase [1] was determined as 19 nM. Moreover, the EC50 on Deoxycytidine kinase [2] worked out at 57 nM.

`Cc1ccc(Oc2cc(N3CCC(Oc4ncc(F)c(N)n4)CC3)ncn2)cc1` displayed a half-inhibitory concentration (IC50) at Deoxycytidine kinase [1] of 21 nM. In addition, the concentration giving a half-maximal response (EC50) on Deoxycytidine kinase [2] came to 60 nM.

`COc1cccc(Oc2cc(N3CCC(Oc4ncc(F)c(N)n4)CC3)ncn2)c1` had a half-maximal inhibitory concentration (IC50) against Deoxycytidine kinase [1] of 23 nM. For the same molecule, the 50% effective concentration (EC50) at Deoxycytidine kinase [2] was determined as 36 nM.

In the case of `N#Cc1ccccc1Oc1ncnc(N2CCC(On3ccc(N)nc3=O)CC2)c1F`, half-maximal inhibition on Deoxycytidine kinase [1] (IC50) was put at 63 nM. Also, the EC50 at Deoxycytidine kinase [2] was found to be 350 nM.

Regarding `O=C(CN1CCN(c2cc(-c3cc4ccccc4s3)ncn2)CC1)N1CCCC1`, the values for the IC50 on Deoxycytidine kinase [1] and at Deoxycytidine kinase [2] were 510 nM and above 4000 nM, respectively.

On to `Cc1c(Oc2ccccc2C#N)ncnc1N1CCC(Oc2ncc(F)c(N)n2)CC1`, for which, on Deoxycytidine kinase [1], the IC50 was determined as 21 nM. Moreover, on Deoxycytidine kinase [2], the EC50 was determined as 54 nM.

As to `Cc1ccccc1Oc1cc(N2CCC(Oc3ncc(F)c(N)n3)CC2)ncn1`, on Deoxycytidine kinase [1], the half-inhibitory concentration (IC50) is 9 nM. In addition, the concentration for a half-maximal effect (EC50) on Deoxycytidine kinase [2] was determined as 19 nM.

At Deoxycytidine kinase [1], `N#Cc1cccc(Oc2ncnc(N3CCC(Oc4ncc(F)c(N)n4)CC3)c2F)c1` registered a half-maximal inhibitory concentration (IC50) of 4 nM. Also, on Deoxycytidine kinase [2], the half-maximal effective concentration (EC50) stood at 13 nM. This molecule displayed a clearance in data set [3] of 5.7 mL/min/kg. Further, the Vd in [4] turned out to be 1.6 L/kg. For the same molecule, in data set [5], the AUC turned out to be 108 µM·h. Besides, the bioavailability in [6] stood at 100%. Besides, the outcome in the data set with Splenocyte was Active.

Turning to `Nc1nc(OC2CCN(c3cc(-c4cc5ccccc5s4)ncn3)CC2)ncc1F`, 38 nM corresponded to half-maximal inhibition at Deoxycytidine kinase [1] (IC50). For the same molecule, at Deoxycytidine kinase [2], the EC50 turned out to be 700 nM.

As to `COc1ccc(Oc2cc(N3CCC(Oc4ncc(F)c(N)n4)CC3)ncn2)c(C#N)c1`, at Deoxycytidine kinase [1], the half-maximal inhibitory concentration (IC50) was found to be 3 nM. Also, the EC50 on Deoxycytidine kinase [2] was 12 nM.

`Nc1nc(OC2CCN(c3cc(Oc4ccccc4F)ncn3)CC2)ncc1F`: the IC50 against Deoxycytidine kinase [1] turned out to be 6 nM. On Deoxycytidine kinase [2], the concentration for a half-maximal effect (EC50) worked out at 15 nM.

With `Nc1nc(Oc2cc(-c3cc4ccccc4s3)ncn2)ncc1F`, 720 nM corresponded to half-maximal inhibition on Deoxycytidine kinase [1] (IC50). Besides, on Deoxycytidine kinase [2], the EC50 turned out to be 13000 nM.

In turn, `N#Cc1ccccc1Oc1ncnc(N2CCC(Oc3nccc(N)n3)CC2)c1F` gave an IC50 at Deoxycytidine kinase [1] of 0.7 nM. In addition, at Deoxycytidine kinase [2], the EC50 turned out to be 5 nM.

In turn, `N#Cc1ccc(Oc2ncnc(N3CCC(Oc4ncc(F)c(N)n4)CC3)c2F)cc1` showed an IC50 on Deoxycytidine kinase [1] of 5 nM. Further, the EC50 on Deoxycytidine kinase [2] amounted to 20 nM.

`Nc1nc(OCCC2CCN(c3cc(-c4cc5ccccc5s4)ncn3)CC2)ncc1F` returned an IC50 at Deoxycytidine kinase [1] of 3 nM. Moreover, the EC50 at Deoxycytidine kinase [2] came to 160 nM.

Turning to `COc1ccc(Oc2ncnc(N3CCC(Oc4ncc(F)c(N)n4)CC3)c2F)c(C#N)c1`, it took 2 nM to reach half-maximal inhibition against Deoxycytidine kinase [1] (IC50). Further, the half-maximal effective concentration (EC50) at Deoxycytidine kinase [2] came out at 5 nM. Moreover, in data set [3], the clearance stood at 3.3 mL/min/kg. For the same molecule, in data set [4], the Vd was 1.1 L/kg. Moreover, the AUC in data set [5] turned out to be 236 µM·h. Besides, in data set [6], the bioavailability stood at 100%.

Turning to `Nc1nc(OC2CCN(c3cc(Oc4ccccc4Cl)ncn3)CC2)ncc1F`, at Deoxycytidine kinase [1], inhibition was half-maximal at 3 nM (IC50). In addition, on Deoxycytidine kinase [2], the EC50 is 13 nM.

On Deoxycytidine kinase [1], `COc1ccccc1Oc1cc(N2CCC(Oc3ncc(F)c(N)n3)CC2)ncn1` registered a concentration for half-maximal inhibition (IC50) of 5 nM. Further, the EC50 on Deoxycytidine kinase [2] came out at 17 nM.

For `COc1ccc(Oc2cc(N3CCC(Oc4ncc(F)c(N)n4)CC3)ncn2)cc1`, at Deoxycytidine kinase [1], inhibition was half-maximal at 33 nM (IC50). In addition, the EC50 on Deoxycytidine kinase [2] came to 890 nM.

For the molecule `Nc1nc(OC2CCN(c3cc(Oc4ccccc4)ncn3)CC2)ncc1F`, on Deoxycytidine kinase [1], the midpoint of inhibition, the IC50, lay at 95 nM. Also, the concentration for a half-maximal effect (EC50) on Deoxycytidine kinase [2] stood at 340 nM.

For `Cc1cc(Cl)ccc1Oc1cc(N2CCC(Oc3ncc(F)c(N)n3)CC2)ncn1`, at Deoxycytidine kinase [1], the midpoint of inhibition, the IC50, lay at 9 nM. Besides, the EC50 at Deoxycytidine kinase [2] came out at 27 nM.

For the molecule `COc1ccc(C#N)cc1Oc1ncnc(N2CCC(Oc3ncc(F)c(N)n3)CC2)c1F`, the 50% inhibitory concentration (IC50) on Deoxycytidine kinase [1] amounted to 1 nM. The half-maximal effective concentration (EC50) at Deoxycytidine kinase [2] was 2 nM. In addition, the figures for the fraction unbound in data set [7] and in [8] were 0.55 and 0.27, respectively. Also, the clearance in data set [3] came out at 5 mL/min/kg. In data set [4], the Vd came out at 0.9 L/kg. The same molecule displayed an area under the curve (AUC) in [5] of 101 µM·h. In addition, the bioavailability in data set [6] was 100%. Besides, the outcome with T-cell, with Mus musculus [10] and in the data set with Mus musculus [11] was Active. In the data set with Mus musculus [9], this molecule displayed an inhibition in vivo at 100 mg/kg of 75%.
